Test [1] has as its system children of alcoholics (COAs). Description: Smooth pursuit eye movement task after intravenous diazepam. The class given is in vivo, human. Particulars: COAs having the Pro385Ser allele relative to COAs having the Pro385 genotype.
Description: Initially, the saccadic eye movement velocity and smooth pursuit eye movement gain was measured in the 56 COAs tested. Two baseline measurements for each variable were taken and averaged. The differences from this baseline were then evaluated at set time points after each of four diazepam doses. The data points were used to determine, by a trapezoidal technique, the integrated area under the resulting curve. The area under the curve for the dependent variable was then divided by the area under the curve for plasma diazepam levels to correct for individual variability in diazepam levels. The ratios of the areas under the curves for COAs with the Ser385 homozygous genotype and the Pro/Ser heterozygous genotype were then compared by t-test. […] For the G1031C genotype, a one-way ANOVA was used for assessing association.
COAs were tested on two days about one week apart. Intravenous catheters were inserted into antecubital veins in each of the subjects arms. One intravenous line was used for drawing blood while the other was used for administration of either diazepam or placebo. […]
On each testing day, responses were measured at 12 separate time points: twice at baseline, once after each of the four doses, and at each of six 30 minute intervals after the last dose for a period spanning three hours. Eye movements were evaluated at each time point. […]
Test [2] concerns sons of alcoholics and controls (men). The text has this: As part of a larger study, 41 men, were selected from among the first 113 completed 15-year follow-ups in a prospective study. […] Seventeen subjects whose low level of response to ethanol (LR) were in the lower third were compared on five polymorphisms of four genes with 24 men whose reactions to alcohol had been above the median.
For this pilot study, blood samples were taken from the first 41 appropriate consecutive men among the first 113 who completed 15-year follow-ups in an ongoing study. In order to identify subjects who were clearly low on LR, the men were selected to represent the two poles of LR. […] The alcohol challenges, evaluated changes from baseline for subjective feeling of intoxication, standing steadiness, and hormones after drinking 0.75 ml/kg of ethanol. (Schuckit and Gold, Arch Gen Psychiatry 45:211-216 (1986). The overall LR was evaluated as the change from baseline (pre-alcohol) to the time of peak blood alcohol concentration (BAC) (60 minute values) following alcohol consumption.

We go through two molecules from US6762294B2, “Polynucleotides encoding polymorphic human GABAA receptor α-6 subunit” (The United States of America as represented by the …, priority 1999, dated 2004).

Where two headings read alike, the source gives them in different places.

`CN1C(=O)CN=C(c2ccccc2)c2cc(Cl)ccc21` [diazepam]: the “Sensitivity to diazepam (average smooth pursuit eye movement gain)” value in test [1] is recorded as “reduced sensitivity”.

On to `CCO` [ethanol], for which the “mean (±SD) LR” value is “−.44” in test [2] (0.75 ml/kg ethanol, 5-HT2A His452Tyr genotype His-His); “−.20” in test [2] (0.75 ml/kg ethanol, 5-HT2A His452Tyr genotype His-Tyr); “−.46” in test [2] (0.75 ml/kg ethanol, 5-HT2A T102C genotype CC); “−.31” in test [2] (0.75 ml/kg ethanol, 5-HT2A T102C genotype TC); “−.71” in test [2] (0.75 ml/kg ethanol, 5-HT2A T102C genotype TT); “−.39” in test [2] (0.75 ml/kg ethanol, 5-HT2C Cys23Ser genotype Cys). Further, the “mean (±SD) LR” value in test [2] (0.75 ml/kg ethanol, 5-HT2C Cys23Ser genotype Ser) is given as “−.73”; in test [2] (0.75 ml/kg ethanol, 5-HT Transporter genotype SL), “−.30”; in test [2] (0.75 ml/kg ethanol, 5-HT Transporter genotype SS) it was “−.00”; in test [2] (0.75 ml/kg ethanol, GABAA α6 genotype Pro/Pro), “−.27”; in test [2] (0.75 ml/kg ethanol, GABAA α6 genotype Pro/Ser), −1.01. For the same molecule, the “mean LR” value in test [2] (0.75 ml/kg ethanol, combined SL and SS 5-HTT genotype groups) amounted to 0.16±0.75. Also, the “proportion of subjects whose LR fell into the lowest third” value in test [2] (5-HTT genotype LL) stood at 71.4%; in test [2] (5-HTT genotype SL) it was 31.6%; in test [2] (5-HTT genotype SS), 12.5%. For the same molecule, the “LR at age 20” value is −0.74±1.13 in test [2] (LL/PP genotypes); −0.13±0.88 in test [2] (SL/PP genotypes); 0.59±1.11 in test [2] (SL/PS genotypes); 0.03±0.45 in test [2] (SS/PP genotypes); −1.29±0.53 in test [2] (combination of LL 5-HTT and Ser385 GABAA α6 genotypes). Also, the “proportion in the lowest third in response to alcohol” value in test [2] (Pro385 homozygotes) is on record as 35.3%; in test [2] (those with Ser385 (Pro/Ser)) it was 71.4%. For the same molecule, in test [2] (individuals with the Pro385Ser polymorphism compared with the wild-type polymorphism), the Sensitivity to ethanol result is recorded as “reduced sensitivity”.
